Assay results from patent US12286632B2, “Rationally-designed synthetic peptide shuttle agents for delivering polypeptide cargos from an extracellular space to the cytosol and/or nucleus of a target eukaryotic cell, uses thereof, methods and kits relating to same” (Feldan Bio Inc., priority 2016, dated 2025).
Ends that are not written are not given here. Peptide text beside a SMILES is read from it.

Experiments:
HeLa cells [1] = test: Plasmid DNA (pEGFP-C1) transfection by peptides (% cells with GFP signal, cell viability); conditions: DNA transfection in HeLa cells using peptides; pEGFP-C1 plasmid
in vitro [2] = conditions: human, HeLa cells
HeLa cells [3] = test: GFP-NLS protein transduction assay (flow cytometry: Pos cells %, viability %, relative fluorescence intensity; microscopy); conditions: HeLa cells
in vitro [4] = conditions: human, HeLa cells; for viability: Cell viability (%) (±St Dev.; n = 3)
HeLa cells [5] = conditions: human, 10 s, 50 µM
in vitro [6] = conditions: human, NCI-H196 cells
in vitro [7] = conditions: human, HCC-78 cells
THP-1 cells = test: HOXB4-WT transduction: target gene mRNA by real-time PCR (Fold over control) and total RNA (ng/μL) as marker for cell viability; type: cell-based, human; conditions: THP-1, serum
Protocol: Control and treated cells are transferred to separate sterile 1.5-mL tubes and centrifuged for 5 minutes at 300g. The cell pellets are resuspended in appropriate buffer to lyse the cells. RNAase-free 70% ethanol is then added followed by mixing by pipetting. The lysates are transferred to an RNeasy™ Mini spin column and centrifuged 30 seconds at 13000 RPM. After several washes with appropriate buffers and centrifugation steps, the eluates are collected in sterile 1.5-mL tubes on ice, and the RNA quantity in each tube is then quantified with a spectrophotometer. For DNase treatment, 2 μg of RNA is diluted in 15 μL of RNase-free water. 1.75 μL of 10X DNase buffer and 0.75 μL of DNase is then added, followed by incubation at 37° C. for 15 minutes. For reverse transcriptase treatment, 0.88 μL of EDTA […] is added, followed by incubation at 75° C. for 5 minutes. In a PCR tube, […] of DNase-treated RNA is mixed with 4 μL of iScript™ Reverse transcription Supermix (5X) and […] of nuclease-free water. The mix is incubated in a PCR machine with the following program: 5 min at 25° C., 30 min at 42° C. and 5 min at 85° C. Newly synthesized cDNA is transferred in sterile 1.5-mL tubes and diluted in 2 μL of nuclease-free water. 18 μL per well of a qPCR machine (CFX-96™) mix is then added in a PCR plate for analysis.
Briefly, THP-1 cells were plated at 30 000 cells/well one day before transduction. HOXB4-WT recombinant protein ([…]; Example 14.1) was co-incubated with different concentrations of His-CM18-PTD4 ([…]) and then exposed to THP-1 cells for 2.5 hours in the presence of serum. The cells were subjected to real time-PCR analysis as described in Example 14.2 to measure the mRNA levels of a target gene as a marker for HOXB4 activity, which was then normalized to the target gene mRNA levels detected in the negative control cells (no treatment), to obtain a “Fold over control” value. Total RNA levels (ng/μL) were also measured as a marker for cell viability.
Briefly, THP-1 cells were plated at 30 000 cells/well one day before the first time course experiment. HOXB4-WT recombinant protein (1.5 μM; Example 14.1) was co-incubated with His-CM18-PTD4 (0.8 μM) and then exposed to THP-1 cells for 0, 2.5, 4, 24 or 48 hours in presence of serum. The cells were subjected to real time-PCR analysis as described in Example 14.2 to measure mRNA levels of a target gene as a marker for HOXB4 activity, which was then normalized to the target gene mRNA levels detected in the negative control cells (no treatment), to obtain a “Fold over control” value. Total RNA levels (ng/μL) were also measured as a marker for cell viability.
Briefly, THP-1 cells were plated at 30 000 cells/well one day before the first time course experiment. HOXB4-WT recombinant protein (0.3 μM; Example 14.1) was co-incubated with His-CM18-PTD4 (0.8 μM) and then exposed to THP-1 cells for 0, 0.5, 1, 2, 2.5, 3 or 4 hours in presence of serum. The cells were subjected to real time-PCR analysis as described in Example 14.2 to measure mRNA levels of a target gene as a marker for HOXB4 activity, which was then normalized to target gene mRNA levels detected in the negative control cells (no treatment), to obtain a “Fold over control” value. Total RNA levels (ng/μL) were also measured as a marker for cell viability.
Briefly, THP-1 cells were plated at 30 000 cells/well one day before the first time course experiment. HOXB4-WT recombinant protein (1.5 μM; Example 14.1) co-incubated with the shuttle agents His-CM18-PTD4, TAT-KALA, EB1-PTD4, His-C(LLKK)3C-PTD4 and His-CM18-PTD4-His at 0.8 μM, and then exposed to THP-1 cells for 2.5 hours in presence of serum. The cells were subjected to real time-PCR analysis as described in Example 14.2 to measure mRNA levels of a target gene as a marker for HOXB4 activity, which was then normalized to target gene mRNA levels detected in the negative control cells (no treatment), to obtain a “Fold over control” value. […]

[8] = Cell viability (%) (±St. Dev.; n = 3)

CC(C)C[C@H](NC(=O)[C@H](CC(C)C)NC(=O)[C@H](CCCCN)NC(=O)[C@H](CCCCN)NC(=O)[C@H](CC(C)C)NC(=O)[C@H](CC(C)C)NC(=O)[C@H](CCCCN)NC(=O)[C@H](CCCCN)NC(=O)[C@H](CC(C)C)NC(=O)[C@H](CC(C)C)NC(=O)[C@@H](N)CS)C(=O)N[C@@H](CCCCN)C(=O)N[C@@H](CCCCN)C(=O)N[C@@H](CS)C(=O)O [C(LLKK)3] (H-CLLKKLLKKLLKKC-OH; N-terminus and C-terminus assumed)
Mean % cells with GFP signal (±St. Dev.; n = 3) (HeLa cells [1]): 0.00 ± 0.00% | viability (in vitro [2]): 81.7 ± 2.34%

CC[C@H](C)[C@H](NC(=O)[C@H](CCCCN)NC(=O)[C@H](CCCCN)NC(=O)[C@H](Cc1ccccc1)NC(=O)[C@H](CC(C)C)NC(=O)[C@H](CCCCN)NC(=O)[C@H](Cc1c[nH]c2ccccc12)NC(=O)[C@@H](N)CCCCN)C(=O)NCC(=O)N[C@@H](C)C(=O)N[C@H](C(=O)N[C@@H](CC(C)C)C(=O)N[C@@H](CCCCN)C(=O)N[C@H](C(=O)N[C@@H](CC(C)C)C(=O)N[C@H](C(=O)N[C@H](C(=O)NCC(=O)N[C@@H](CCCNC(=N)N)C(=O)N[C@@H](CCC(N)=O)C(=O)N[C@H](C(=O)N[C@@H](CCCCN)C(=O)N[C@H](C(=O)N[C@@H](Cc1c[nH]c2ccccc12)C(=O)N[C@@H](Cc1ccccc1)C(=O)N[C@@H](CCC(N)=O)C(=O)N[C@@H](CC(N)=O)C(=O)N[C@@H](CCCNC(=N)N)C(=O)N[C@@H](CCCNC(=N)N)C(=O)N[C@@H](CCSC)C(=O)N[C@@H](CCCCN)C(=O)N[C@@H](Cc1c[nH]c2ccccc12)C(=O)N[C@@H](CCCCN)C(=O)N[C@@H](CCCCN)C(=O)N[C@@H](CS)C(=O)O)[C@@H](C)CC)[C@@H](C)CC)[C@@H](C)O)[C@@H](C)O)C(C)C)C(C)C [CM18-Pen-Cys]
Mean % cells with GFP signal (±St. Dev.; n = 3) (HeLa cells [1]): 0.01 ± 0.0% | viability (in vitro [2]): 16.1 ± 0.12%

CC(C)C[C@H](NC(=O)[C@H](CCCNC(=N)N)NC(=O)[C@H](CCC(=O)O)NC(=O)CNC(=O)[C@H](CCC(N)=O)NC(=O)[C@@H](NC(=O)[C@H](Cc1c[nH]c2ccccc12)NC(=O)[C@H](CC(C)C)NC(=O)[C@H](CCCCN)NC(=O)[C@H](CC(C)C)NC(=O)[C@H](CC(C)C)NC(=O)[C@H](CCCNC(=N)N)NC(=O)[C@H](CO)NC(=O)[C@H](Cc1c[nH]c2ccccc12)NC(=O)[C@H](CC(C)C)NC(=O)[C@H](CS)NC(=O)[C@H](CC(C)C)NC(=O)[C@H](CC(C)C)NC(=O)[C@H](Cc1c[nH]cn1)NC(=O)[C@H](Cc1c[nH]cn1)NC(=O)[C@H](Cc1c[nH]cn1)NC(=O)[C@H](Cc1c[nH]cn1)NC(=O)[C@H](Cc1c[nH]cn1)NC(=O)[C@@H](N)Cc1c[nH]cn1)[C@@H](C)O)C(=O)N[C@@H](CCCCN)C(=O)N[C@@H](C)C(=O)N[C@@H](CCCCN)C(=O)N[C@@H](CS)C(=O)N[C@@H](C)C(=O)N[C@@H](CCCCN)C(=O)N[C@@H](C)C(=O)N[C@@H](CS)C(=O)N[C@@H](CCC(=O)O)C(=O)N[C@@H](CCCNC(=N)N)C(=O)O [FSD24] (H-HHHHHHLLCLWSRLLKLWTQGERLKAKCAKACER-OH; N-terminus and C-terminus assumed)
Mean % cells with GFP signal (±St. Dev.; n = 3) (HeLa cells [3]; Table B2, GFP-NLS cargo): 37.48 ± 4.08% | viability (in vitro [4]): 75.3 ± 3.93% | Mean % cells with GFP signal (±St. Dev.; n = 3) (HeLa cells [1]): 0.20 ± 0.00% | viability (in vitro [2]): 96.5 ± 3.02%

GLFEALLELLESLWELLLEAYARAAARQARA [JST-PTD4]
Cell viability (%) (±St. Dev.; n = 3) (HeLa cells [5]): 98.9 ± 0.57% | viability (in vitro [2]): 70.2 ± 5.39%

HHHHHHCMKVVWEIVLAKYKGGGGRARAASRRARA [FSD42]
Mean % cells with GFP signal (±St. Dev.; n = 3) (HeLa cells [3]; Table C3, GFP-NLS 10 μM, 10 μM of the peptide, 1 min): 1.59 ± 0.39% | viability at 1 min, 10 µM (in vitro [4]; [8]): 97.3 ± 1.07% | Mean % cells with GFP signal (±St. Dev.; n = 3) (HeLa cells [1]): 0.12 ± 0.02% | viability (in vitro [2]): 96.7 ± 1.96%

HHHHHHHHHKWKLFKKIGAVLKVLTTGYARAAARQARA [Peptide 9His-CM18-PTD4]
Mean % cells with GFP signal (±St. Dev.; n = 3) (HeLa cells [1]): 0.04 ± 0.01% | viability (in vitro [2]): 98.72 ± 0.93%

HHHHHHLLKLWSRLLKLWTQGRRLKAKRAKAHHHHHH [FSD5]
viability (in vitro [4]): 86 ± 7.45% | viability at 1 min, 8 µM (in vitro [4]; [8]): 85 ± 6.27% | viability at 1 min, 10 µM (in vitro [4]; [8]): 76 ± 7.45% | viability at 2 min, 5 µM (in vitro [4]; [8]): 35.5 ± 4.82% | viability at 1 min, 8 µM (in vitro [6]): 69.9 ± 6.38% | viability at 1 min, 10 µM (in vitro [6]): 47.2 ± 3.54% | viability at 2 min, 5 µM (in vitro [6]): 77.2 ± 6.17% | viability at 1 min, 8 µM (in vitro [7]): 87.7 ± 6.52% | viability at 1 min, 10 µM (in vitro [7]): 15.9 ± 0.83% | viability at 2 min, 5 µM (in vitro [7]): 75.3 ± 6.18% | viability (in vitro [2]): 93.2 ± 8.63%

HOXB4-WT
Fold over control (mean ± St. Dev) (THP-1 cells; Table 14.1, 2.5 hours, shuttle 0 μM, HOXB4-WT 1.5 μM (alone)): 4.3 ± 0.1 | Fold over control (mean ± St. Dev) (THP-1 cells; Table 14.2, shuttle 0 μM, HOXB4-WT 1.5 μM (alone), exposure 2.5 h): 3.4 ± 0.3 | Fold over control (mean ± St. Dev) (THP-1 cells; Table 14.3, shuttle 0.8 μM, HOXB4-WT 0 μM (alone), exposure 2.5 h): 1 ± 0.14 | Fold over control (mean ± St. Dev) (THP-1 cells; Table 14.4, shuttle 0.8 μM, HOXB4-WT 0 μM (alone), exposure 2.5 h): 1 ± 0.11
